For data set [1], the target named is T1, recombinant BACE1 protein (Homo sapiens, UniProt P56817).
T1 construct: recombinant BACE1 protein in a final concentration of 1 μg/ml
Nature of the data set: Biochemical FRET based assay. The note with it: recombinant BACE1 1 μg/ml, APP-derived Swedish-mutation peptide substrate, 120 minutes, room temperature, pH 5.0; read-out: Biochemical FRET based assay pIC50 (converted). The text has this:
This assay is a Fluorescence Resonance Energy Transfer Assay (FRET) based assay. The substrate for this assay is an APP derived 13 amino acids peptide that contains the ‘Swedish’ Lys-Met/Asn-Leu mutation of the amyloid precursor protein (APP) β-secretase cleavage site. This substrate also contains two fluorophores: (7-methoxy-coumarin-4-yl)acetic acid (Mca) is a fluorescent donor with excitation wavelength at 320 nm and emission at 405 nm and 2,4-Dinitrophenyl (Dnp) is a proprietary quencher acceptor. […] Upon cleavage by BACE1, the fluorophore Mca is separated from the quenching group Dnp, restoring the full fluorescence yield of the donor. The increase in fluorescence is linearly related to the rate of proteolysis (Koike H et al. J Biochem. 1999, 126, 235-42).
Briefly in a 384-well format recombinant BACE1 protein in a final concentration of 1 μg/ml is incubated for 120 minutes at room temperature with 10 μm substrate in incubation buffer (40 mM Citrate buffer pH 5.0, 0.04% PEG, 4% DMSO) in the absence or presence of compound. Next the amount of proteolysis is directly measured by fluorescence measurement at T=0 and T=120 (excitation at 320 nm and emission at 405 nm). Results are expressed in RFU, as difference between T120 and T0.
A best-fit curve is fitted by a minimum sum of squares method to the plot of % Controlmin versus compound concentration. From this an […] value (inhibitory concentration causing 50% inhibition of activity) can be obtained.

The subject of data set [2] is Aβ42 produced and secreted into the medium of human neuroblastoma SKNBE2 cells. Nature of the data set: Cellular αlisa assay in SKNBE2 cells, Aβ42. It counts as cell-based. The note with it: SKNBE2 expressing wild type hAPP695, incubated for 18 hours, read-out: Cellular αlisa assay in SKNBE2 cells Aβ42 pIC50 (converted). Here is the method:
(§1) In two αlisa assays the levels of Aβtotal and Aβ42 produced and secreted into the medium of human neuroblastoma SKNBE2 cells are quantified. The assay is based on the human neuroblastoma SKNBE2 expressing the wild type Amyloid Precursor Protein (hAPP695). The compounds are diluted and added to these cells, incubated for 18 hours and then measurements of Aβ42 and Aβtotal are taken. Aβtotal and Aβ42 are measured by sandwich αlisa. αlisa is a sandwich assay using biotinylated antibody AbN/25 attached to streptavidin coated beads and antibody Ab4G8 or cAb42/26 conjugated acceptor beads for the detection of Aβtotal and Aβ42 respectively. In the presence of Aβtotal or Aβ42, the beads come into close proximity. The excitation of the Donor beads provokes the release of singlet oxygen molecules that triggers a cascade of energy transfer in the Acceptor beads, resulting in light emission. Light emission is measured after 1 hour incubation (excitation at […] and emission at 615 nm).
(§2) A best-fit curve is fitted by a minimum sum of squares method to the plot of % Controlmin versus compound concentration. From this an IC50 value (inhibitory concentration causing 50% inhibition of activity) can be obtained.

Data set [3] deals with Aβtotal produced and secreted into the medium of human neuroblastoma SKNBE2 cells. The experiment in a line: Cellular αlisa assay in SKNBE2 cells, Aβtotal. It counts as cell-based. Particulars: SKNBE2 expressing wild type hAPP695, incubated for 18 hours, read-out: Cellular αlisa assay in SKNBE2 cells Aβtotal pIC50 (converted). Here is the method:
as §1, §2

T1 sequence (P56817 46-501): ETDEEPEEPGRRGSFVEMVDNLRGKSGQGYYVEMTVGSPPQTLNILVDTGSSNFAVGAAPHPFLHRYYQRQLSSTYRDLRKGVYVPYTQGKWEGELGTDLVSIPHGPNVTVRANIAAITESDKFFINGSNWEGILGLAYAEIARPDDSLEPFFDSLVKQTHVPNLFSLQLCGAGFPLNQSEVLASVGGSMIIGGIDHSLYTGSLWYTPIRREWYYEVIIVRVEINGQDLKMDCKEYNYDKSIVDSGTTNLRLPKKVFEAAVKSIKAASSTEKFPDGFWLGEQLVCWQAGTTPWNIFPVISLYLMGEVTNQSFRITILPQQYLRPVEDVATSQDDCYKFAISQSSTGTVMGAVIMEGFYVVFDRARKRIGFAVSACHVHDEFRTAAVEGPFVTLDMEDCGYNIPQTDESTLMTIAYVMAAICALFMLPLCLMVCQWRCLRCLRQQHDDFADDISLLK

Consider `CN1CC(C)(c2cc(-c3ccccc3)c(F)cc2F)N=C(N)C1=O` (stereo not drawn) [compound 6], for which the melting point (usually the temperature of the solid-liquid transition) was determined as 141.5 °C. The IC50 in data set [1] was over 30.2 µM. Also, the IC50 in data set [2] was over 10 µM. Further, in data set [3], the IC50 was over 10 µM.
As to `CN1CC(C)(c2cccc(-c3cncnc3)c2)N=C(N)C1=O` (stereo not drawn) [compound 16], the melting point amounted to 234.6 °C. In addition, the IC50 in data set [1] was over 30.2 µM. For the same compound, the IC50 in data set [2] is over 10 µM. Further, the IC50 in data set [3] was over 10 µM.
In turn, `COc1cncc(-c2cc(C3(C)CN(C)C(=O)C(N)=N3)c(F)cc2F)c1` (stereo not drawn) [compound 7] registered a melting point of 180.5 °C. Besides, in data set [1], the IC50 is 7.59 µM. For the same compound, the IC50 in data set [2] was 4.47 µM. Further, in data set [3], the IC50 is 4.07 µM.
`CN1CC(C)(c2cc(-c3cncnc3)c(F)cc2F)N=C(N)C1=O` (stereo not drawn) [compound 10] registered a melting point of 145.2 °C. Moreover, the IC50 in data set [1] was over 30.2 µM. The IC50 in data set [2] was over 10 µM. Moreover, the IC50 in data set [3] was over 10 µM.
In the case of `COc1cncc(-c2cccc(C3(C)CN(C)C(=O)C(N)=N3)c2)c1` (stereo not drawn) [compound 2], the melting point was 230.4 °C. The IC50 in data set [1] is 15.5 µM. For the same compound, the IC50 in data set [2] is 7.94 µM. Besides, in data set [3], the IC50 is 5.75 µM.
For the compound `CN1CC(C)(c2cccc(NC(=O)c3ccc(Cl)cn3)c2)N=C(N)C1=O` (stereo not drawn) [compound 3], the IC50 was 0.457 µM in data set [1], 0.115 µM in data set [2] and 0.107 µM in data set [3].
Turning to `CN1CC(C)(c2cccc(-c3cccc(C#N)c3)c2)N=C(N)C1=O` (stereo not drawn) [compound 1], the melting point worked out at 218.6 °C. Further, the IC50 in data set [1] was 27.5 µM. The IC50 in data set [2] is 7.08 µM. Besides, the IC50 in data set [3] was 5.75 µM.

For the origin of these results see patent US20130102618A1, “3-AMINO-5,6-DIHYDRO-1H-PYRAZIN-2-ONE DERIVATIVES USEFUL FOR THE TREATMENT OF ALZHEIMER'S DISEASE AND OTHER FORMS OF DEMENTIA” (JANSSEN PHARMACEUTICA NV, priority 2010, published 2013).
